The record followed here is article PMC4862498, “PI4 Kinase Is a Prophylactic but Not Radical Curative Target in Plasmodium vivax-Type Malaria Parasites” (Antimicrobial Agents and Chemotherapy, 2016).

The subject of series [1] is P. cynomolgi developing EEFs (liver schizonts) in primary rhesus hepatocytes. Kind of series: In vitro liver-stage drug assay with P. cynomolgi, large forms (developing EEFs / liver schizonts). The note with it: compound exposure 6 days, mean of several (9) independent assays, read-out: IC50 against developing EEFs / liver schizonts (large forms). The class given is cell-based, Plasmodium cynomolgi. How it is done: In vitro infections of primary rhesus hepatocytes with P. cynomolgi sporozoites were performed according to methods described previously by Zeeman et al. ([10]). At day 6 postinfection (p.i.), the assay mixtures were fixed and stained with anti-P. cynomolgi Hsp70 rabbit antiserum and a fluorescein isothiocyanate (FITC)-labeled secondary antibody (goat anti-rabbit). Plates were analyzed with the Operetta high-content imaging system, differentially counting hypnozoites and developing extraerythrocytic forms (EEFs), based on parasite size ([10]).
In vitro activity against P. cynomolgi liver stages was determined for both compounds. The numbers of small (hypnozoites) and large (developing EEFs) parasites were determined by using Operetta and image analysis of primary rhesus hepatocyte cultures infected with P. cynomolgi sporozoites and exposed to the compound for 6 days ([10]). […] IC50s were determined by using the least-squares nonlinear regression method (Prism) for small and large parasites. Data from several independent experiments were used to calculate the IC50s for the two compounds.

For series [2], the system named is P. cynomolgi sporozoite-infected rhesus macaques (hypnozoites, relapse). Description: Radical cure in P. cynomolgi sporozoite-infected rhesus macaques. The class given is in vivo, Plasmodium cynomolgi. As to the method:
Sporozoites were harvested from P. cynomolgi-infected mosquitoes, washed with phosphate-buffered saline (PBS), and diluted to 100,000 sporozoites (spz)/ml in PBS. One-milliliter aliquots of sporozoites were prepared and injected into monkeys via intravenous (i.v.) injection.
Monkeys were treated according to the schedule shown in Table 1 (stratification of treatment groups is given in the supplemental material). During treatment, monkeys were weighed daily and received the compound via gavage, followed by gastric feeding (weight change during treatment is shown in Table S6 in the supplemental material). Monkeys in the prophylaxis groups (groups 691-proph and 599-proph) were treated ∼20 min after the i.v. sporozoite injection. The other monkeys were treated when all the monkeys in the experiment (except those in the prophylaxis group) were blood-stage patent (at day 11 p.i.). To kill the blood-stage parasites, all monkeys received a 5-day treatment of 7.5 mg/kg of body weight of chloroquine (CQ) (intramuscular [i.m.] injection), during compound dosing. KDU691 was formulated in 0.5% methylcellulose and 0.5% Tween 80 in water. LMV599 was formulated as a solid dispersion in a solution containing 5.6% (wt/wt) Tween 80–44.4% hydroxypropyl methylcellulose (HPMC) E3–38.9% Soluplus–11.1% vitamin E D-alphatocopheryl polyethylene glycol 1000 succinate (TPGS).
Parasitemia was closely monitored by thin-film analysis. Animals were trained to present for thigh pricks, which was followed by a reward. Thin-film slides were stained with 20% Giemsa stain, and at least 50 fields (±20,000 erythrocytes [RBCs]) were analyzed with a bright-field microscope (×1,200 magnification). As soon as all monkeys other than the prophylactic treatment groups were blood-stage positive, treatment was started as indicated above (Table 1). After the last day of compound dosing, the absence of blood-stage parasites was confirmed by thin smears. From day 23 p.i., monkeys were monitored daily for relapses. The KDU691 radical-cure (group 691-RC) treatment and control groups were monitored until the first relapse. The LMV599 control (group 599-C), radical-cure (group 599-RC), and PQ radical-cure (group PQ-RC) treatment groups were monitored until the second relapse or until day 100 p.i. (whichever came first). At the end of the study, monkeys that had relapsed received a 14-day primaquine treatment, with a final check 2 weeks after the last primaquine dose.
P. cynomolgi sporozoite production
A monkey was infected with […] P. cynomolgi M strain blood stage parasites, thawed from a first passage stock (i.e. blood stage parasites from a monkey infected with P. cynomolgi M strain sporozoites). For each batch of sporozoites needed, a single monkey was infected with P. cynomolgi blood stage parasites.
At day 11 and 12 post infection 9 mL infected blood was collected into a Lithium-heparinised tube. The blood was kept at 38°C and fed approximately 500 three to five days old female Anopheles stephensi mosquitoes Sind-Kasur strain Nijmegen (Nijmegen University Medical Centre St Radboud, Department of Medical Microbiology) using a glass feeder system as described by Ponnudurai et al.. After the second bleed, the monkey was cured by three daily intramuscular injections of 7.5 mg/kg chloroquine, monitored for parasite clearance 24 days after chloroquine treatment and returned to colony.
Mosquitoes were kept in climate chambers at 25 °C and 80% humidity and were fed 5% D -glucose on cotton pads daily. Seven days after feeding on the infected rhesus blood, oocyst numbers were determined in midguts of ten individuals, using 1% mercurochrome stain. Mosquitoes were given a second (uninfected) blood meal immediately afterwards to promote sporozoite maturation and invasion of the salivary glands. Sporozoites were isolated from the P. cynomolgi infected mosquitoes around day16 after the infected blood meal.
In vivo monkey infection and treatment procedures […]

On the set-up of series [3]: species or system mice and monkeys. The note with it: in vivo. As to the method: Details of in vivo PK studies of KDU691 and LMV599 in CD-1 mice and monkeys can be found in the supplemental material.
Pharmacokinetic analysis.
Mean values of compound concentrations in plasma and liver were obtained from three animals at each time point and plotted against time to generate concentration-time profiles. Pharmacokinetic parameters were determined using WinNonlin Professional, version 5.0.1 (Pharsight, California, USA), by non-compartmental modeling using software model 200 for oral dosing. The oral bioavailability (F) was calculated as the ratio between the area under the curve from 0 to infinity (AUCinf) following oral administration and the AUCinf following intravenous administration corrected for dose (F = AUCp.o. * dosei.v. / AUCi.v. * dosep.o.).
PK-PD relationship analysis.
The compound concentration that inhibited 50% of P. cynomolgi growth (IC50) was used to calculate the threshold (TRE = 3*IC50) and the PK-PD indices. The Cmax/TRE was defined as the ratio of peak plasma concentration (Cmax) to the threshold (3*IC50), the AUC0-24/TRE was defined as the ratio of area under the curve from 0 to 24 hours (AUC0-24) to the threshold, and the percent time over threshold (%T>TRE) was defined as the percentage of the 24 hour period during which the compound concentration exceeded the […]
Table S3: Monkey stratification for the in vivo testing of KDU691. […]

SMILES strings stand for the structures. Values joined by “and” are separate entries in the source; they are usually repeats but may differ in a detail not shown here. Equal values may be shown once. “Also recorded” adds a separate entry of the source.

Take `CNC(=O)c1ccc(-c2cnc3cnc(C(=O)N(C)c4ccc(Cl)cc4)cn23)cc1` [KDU691]: the IC50 in series [1] is 61 nM and 60 nM. The radical-cure outcome in series [2] (five daily oral doses of 20 mg/kg from day 11 p.i., 20 mg/kg) is reported as “did not prevent relapse; also recorded: none of the animals treated with KDU691 were radically cured”. Besides, in series [2] (group 691-RC, 20 mg/kg oral for 5 days from day 11 p.i. plus CQ, individual monkeys), the “Day p.i. to first relapse” value is 31 day p.i. and 32 day p.i. Besides, in series [2] (group 691-RC, 20 mg/kg oral for 5 days from day 11 p.i., control 25 ± 1.4), the “day p.i. to first relapse, group mean ± SD” value is on record as 31.8 ± 0.5 days p.i. Further, the “delay to relapse compared to the control group” value in series [2] (group 691-RC, 20 mg/kg oral for 5 days, P = 0.00912, log rank test) is on record as 6.8 days. Moreover, the “Day p.i. to primary parasitemia” value in series [2] (group 691-RC, individual monkeys, baseline, before dosing started at day 11 p.i.) is listed as 9 day p.i. For the same molecule, in series [3], the oral bioavailability was 52-66%.
